Experimental data reported in US20220400680A1, “USE OF ACYLCYANAMIDES OR SALTS THEREOF FOR REGULATING PLANT GROWTH” (Alzchem Trostberg GmbH, priority 2019, published 2022).

How the values were obtained:
[1] = test system: Table cherry, type Burlat (C3); assay: Greenhouse test, cut cherry branches C3 dipped in test solution, bud development stage; type: in vivo, Prunus avium; design: key to Bud development stage, cherry branches C3: Stage 0: Buds unchanged; Stage 1: Buds slightly swollen, first green tips visible; Stage 2: strongly swollen, green buds; Stage 3: Buds before breaking open, leaf or flower root already visible; Stage 4: Flower buds fully developed, but still closed, white petals already visible. In the case of the grapevine, stage 4 was the unfolding of the first leaves; Stage 5: Flowers fully open or, in the case of grapevine, unfolding of the flower roots (“Gescheine”) on the fully leafed sprouts; details: for Good to very good dormancy-breaking effect, cherry C3: stage 4 reached or exceeded after 21 days vs negative control; for Dormancy-breaking effect according to the definition, cherry C3: stage 4 reached or exceeded after 27 days vs negative control
Summary of the method: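 Cut branches kept in water jars in a greenhouse at about 22° C. under natural light after dipping in aqueous solution of 0.15 mol test substance (0.075 mol for bis-cyanamides) plus 0.15 g BreakThru OE-446 per 500 g. Bud development scored on a stage scale from closed buds to fully open flowers.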

[2] = test system: Table apple, type Boiken apple (C1); assay: Greenhouse test, cut apple branches C1 dipped in test solution, bud development stage; type: in vivo, Malus domestica; design: key to Bud development stage, apple branches C1: Stage 0: Buds unchanged; Stage 1: Buds slightly swollen, first green tips visible; Stage 2: strongly swollen, green buds; Stage 3: Buds before breaking open, leaf or flower root already visible; Stage 4: Flower buds fully developed, but still closed, white petals already visible. In the case of the grapevine, stage 4 was the unfolding of the first leaves; Stage 5: Flowers fully open or, in the case of grapevine, unfolding of the flower roots (“Gescheine”) on the fully leafed sprouts; details: for Dormancy-breaking effect according to the definition, apple C1: stage 4 reached or exceeded after 36 days vs negative control
Summary of the method: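 Cut Boiken apple branches kept in water jars in a greenhouse at about 22 °C under natural light and dipped in test solution. Solutions contained 0.15 mol test substance (0.075 mol for bis-cyanamides) plus 0.15 g BreakThru OE-446 per 500 g water. Bud development scored on a stage scale up to full flowering.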

[3] = test system: Table apple, type Zabergäu-Renette (C2); assay: Greenhouse test, cut apple branches C2 dipped in test solution, bud development stage; type: in vivo, Malus domestica; design: key to Bud development stage, apple branches C2: Stage 0: Buds unchanged; Stage 1: Buds slightly swollen, first green tips visible; Stage 2: strongly swollen, green buds; Stage 3: Buds before breaking open, leaf or flower root already visible; Stage 4: Flower buds fully developed, but still closed, white petals already visible. In the case of the grapevine, stage 4 was the unfolding of the first leaves; Stage 5: Flowers fully open or, in the case of grapevine, unfolding of the flower roots (“Gescheine”) on the fully leafed sprouts
Summary of the method: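 Cut branches held in water jars in a greenhouse at about 22° C. under natural light after dipping in aqueous test solution: 0.15 mol substance (0.075 mol for bis-cyanamides) plus 0.15 g BreakThru OE-446 per 500 g. Bud development scored on a stage scale from closed buds to fully open flowers.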

[4] = test system: Grape, type Pinot Noir (C4); assay: Greenhouse test, cut wine sprouts C4 dipped in test solution, bud development stage; type: in vivo, Vitis vinifera subsp. vinifera; design: key to Bud development stage, wine sprouts C4: Stage 0: Buds unchanged; Stage 1: Buds slightly swollen, first green tips visible; Stage 2: strongly swollen, green buds; Stage 3: Buds before breaking open, leaf or flower root already visible; Stage 4: Flower buds fully developed, but still closed, white petals already visible. In the case of the grapevine, stage 4 was the unfolding of the first leaves; Stage 5: Flowers fully open or, in the case of grapevine, unfolding of the flower roots (“Gescheine”) on the fully leafed sprouts; details: for Dormancy-breaking effect according to the definition, wine C4: stage 4 reached or exceeded after 36 days vs negative control
Summary of the method: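 Cut Pinot Noir grapevine sprouts were dipped in aqueous test solution (0.15 mol test substance, or 0.075 mol for bis-cyanamides, plus 0.15 g BreakThru OE-446 per 500 g total) and kept in water jars at about 22° C under natural light. Bud development was scored on a staged scale from closed buds to fully open flowers.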

[5] = T1 (14 d), 0.15 mol (A-14, A-15: 0.075 mol) per 500 g solution

## N#CNC(=O)CCC(=O)NC#N.[Na].[Na] [Example A-14, Disodium-(3-(cyano-amidocarbonyl)-propionyl-cyanamide)]
[1]; [5]
  Bud development stage, cherry branches C3: 0
[1]; T2 (16 d)
  Bud development stage, cherry branches C3: 1
[1]; T3 (21 d)
  Bud development stage, cherry branches C3: 4
[1]; T4 (27 d)
  Bud development stage, cherry branches C3: 5
[1]; T5 (36 d)
  Bud development stage, cherry branches C3: 5
[1]; T6 (56 d)
  Bud development stage, cherry branches C3: 5
[1]
  Good to very good dormancy-breaking effect, cherry C3: good to very good dormancy-breaking effect
  Dormancy-breaking effect according to the definition, cherry C3: dormancy-breaking effect
[2]; [5]
  Bud development stage, apple branches C1: 1
[2]; T2 (16 d)
  Bud development stage, apple branches C1: 1
[2]; T3 (21 d)
  Bud development stage, apple branches C1: 2
[2]; T4 (27 d)
  Bud development stage, apple branches C1: 3
[2]; T5 (36 d)
  Bud development stage, apple branches C1: 5
[2]; T6 (56 d)
  Bud development stage, apple branches C1: 5
[2]
  Dormancy-breaking effect according to the definition, apple C1: dormancy-breaking effect
[3]; [5]
  Bud development stage, apple branches C2: 0
[3]; T2 (16 d)
  Bud development stage, apple branches C2: 0
[3]; T3 (21 d)
  Bud development stage, apple branches C2: 0
[3]; T4 (27 d)
  Bud development stage, apple branches C2: 1
[3]; T5 (36 d)
  Bud development stage, apple branches C2: 3
[3]; T6 (56 d)
  Bud development stage, apple branches C2: 4
[4]; [5]
  Bud development stage, wine sprouts C4: 0
[4]; T2 (16 d)
  Bud development stage, wine sprouts C4: 0
[4]; T3 (21 d)
  Bud development stage, wine sprouts C4: 0
[4]; T4 (27 d)
  Bud development stage, wine sprouts C4: 2
[4]; T5 (36 d)
  Bud development stage, wine sprouts C4: 4
[4]; T6 (56 d)
  Bud development stage, wine sprouts C4: 4
[4]
  Dormancy-breaking effect according to the definition, wine C4: dormancy-breaking effect

## N#CNC(=O)c1ccccc1.[Na] [Example A-4, Sodium benzoyl cyanamide]
[1]; [5]
  Bud development stage, cherry branches C3: 1
[1]; T2 (16 d)
  Bud development stage, cherry branches C3: 2
[1]; T3 (21 d)
  Bud development stage, cherry branches C3: 4
[1]; T4 (27 d)
  Bud development stage, cherry branches C3: 4
[1]; T5 (36 d)
  Bud development stage, cherry branches C3: 5
[1]; T6 (56 d)
  Bud development stage, cherry branches C3: 5
[1]
  Good to very good dormancy-breaking effect, cherry C3: good to very good dormancy-breaking effect
  Dormancy-breaking effect according to the definition, cherry C3: dormancy-breaking effect
[2]; [5]
  Bud development stage, apple branches C1: 1
[2]; T2 (16 d)
  Bud development stage, apple branches C1: 1
[2]; T3 (21 d)
  Bud development stage, apple branches C1: 1
[2]; T4 (27 d)
  Bud development stage, apple branches C1: 2
[2]; T5 (36 d)
  Bud development stage, apple branches C1: 3
[2]; T6 (56 d)
  Bud development stage, apple branches C1: 4
[3]; [5]
  Bud development stage, apple branches C2: 0
[3]; T2 (16 d)
  Bud development stage, apple branches C2: 0
[3]; T3 (21 d)
  Bud development stage, apple branches C2: 0
[3]; T4 (27 d)
  Bud development stage, apple branches C2: 1
[3]; T5 (36 d)
  Bud development stage, apple branches C2: 2
[3]; T6 (56 d)
  Bud development stage, apple branches C2: 2
[4]; [5]
  Bud development stage, wine sprouts C4: 0
[4]; T2 (16 d)
  Bud development stage, wine sprouts C4: 0
[4]; T3 (21 d)
  Bud development stage, wine sprouts C4: 0
[4]; T4 (27 d)
  Bud development stage, wine sprouts C4: 3
[4]; T5 (36 d)
  Bud development stage, wine sprouts C4: 5
[4]; T6 (56 d)
  Bud development stage, wine sprouts C4: 5
[4]
  Dormancy-breaking effect according to the definition, wine C4: dormancy-breaking effect

## N#CN [cyanamide]
[1]; [5]
  Bud development stage, cherry branches C3: 2
[1]; T2 (16 d)
  Bud development stage, cherry branches C3: 4
[1]; T3 (21 d)
  Bud development stage, cherry branches C3: 5
[1]; T4 (27 d)
  Bud development stage, cherry branches C3: 5
[1]; T5 (36 d)
  Bud development stage, cherry branches C3: 5
[1]; T6 (56 d)
  Bud development stage, cherry branches C3: 5
[2]; [5]
  Bud development stage, apple branches C1: 3
[2]; T2 (16 d)
  Bud development stage, apple branches C1: 4
[2]; T3 (21 d)
  Bud development stage, apple branches C1: 5
[2]; T4 (27 d)
  Bud development stage, apple branches C1: 5
[2]; T5 (36 d)
  Bud development stage, apple branches C1: 5
[2]; T6 (56 d)
  Bud development stage, apple branches C1: 5
[3]; [5]
  Bud development stage, apple branches C2: 0
[3]; T2 (16 d)
  Bud development stage, apple branches C2: 0
[3]; T3 (21 d)
  Bud development stage, apple branches C2: 3
[3]; T4 (27 d)
  Bud development stage, apple branches C2: 4
[3]; T5 (36 d)
  Bud development stage, apple branches C2: 5
[3]; T6 (56 d)
  Bud development stage, apple branches C2: 5
[4]; [5]
  Bud development stage, wine sprouts C4: 0
[4]; T2 (16 d)
  Bud development stage, wine sprouts C4: 0
[4]; T3 (21 d)
  Bud development stage, wine sprouts C4: 2
[4]; T4 (27 d)
  Bud development stage, wine sprouts C4: 5
[4]; T5 (36 d)
  Bud development stage, wine sprouts C4: 5
[4]; T6 (56 d)
  Bud development stage, wine sprouts C4: 5

## N#CNC(=O)Cc1ccccc1.[Na] [Example A-12, Sodium phenylacetyl cyanamide]
[1]; [5]
  Bud development stage, cherry branches C3: 0
[1]; T2 (16 d)
  Bud development stage, cherry branches C3: 1
[1]; T3 (21 d)
  Bud development stage, cherry branches C3: 2
[1]; T4 (27 d)
  Bud development stage, cherry branches C3: 5
[1]; T5 (36 d)
  Bud development stage, cherry branches C3: 5
[1]; T6 (56 d)
  Bud development stage, cherry branches C3: 5
[1]
  Dormancy-breaking effect according to the definition, cherry C3: dormancy-breaking effect
[2]; [5]
  Bud development stage, apple branches C1: 0
[2]; T2 (16 d)
  Bud development stage, apple branches C1: 1
[2]; T3 (21 d)
  Bud development stage, apple branches C1: 2
[2]; T4 (27 d)
  Bud development stage, apple branches C1: 2
[2]; T5 (36 d)
  Bud development stage, apple branches C1: 5
[2]; T6 (56 d)
  Bud development stage, apple branches C1: 5
[2]
  Dormancy-breaking effect according to the definition, apple C1: dormancy-breaking effect
[3]; [5]
  Bud development stage, apple branches C2: 0
[3]; T2 (16 d)
  Bud development stage, apple branches C2: 0
[3]; T3 (21 d)
  Bud development stage, apple branches C2: 3
[3]; T4 (27 d)
  Bud development stage, apple branches C2: 3
[3]; T5 (36 d)
  Bud development stage, apple branches C2: 4
[3]; T6 (56 d)
  Bud development stage, apple branches C2: 5
[3]; stage 4 reached or exceeded after 36 days vs negative control
  Dormancy-breaking effect according to the definition, apple C2: dormancy-breaking effect
[4]; [5]
  Bud development stage, wine sprouts C4: 0
[4]; T2 (16 d)
  Bud development stage, wine sprouts C4: 0
[4]; T3 (21 d)
  Bud development stage, wine sprouts C4: 1
[4]; T4 (27 d)
  Bud development stage, wine sprouts C4: 3
[4]; T5 (36 d)
  Bud development stage, wine sprouts C4: 4
[4]; T6 (56 d)
  Bud development stage, wine sprouts C4: 4
[4]
  Dormancy-breaking effect according to the definition, wine C4: dormancy-breaking effect
